Test results taken from patent publication US7855211B2, “Protein kinase inhibitors” (Eli Lilly and Company, priority 2008, dated 2010).
Read-outs that look alike come from different tables or passages of the source.

Experiments:
[1] = test system: Calu-6 (lung) subcutaneous xenografts; test: Calu-6 (lung) subcutaneous xenograft, combination study with gemcitabine; format: in vivo, human; details: 60 mpk, IP, q3dx7
Protocol: (§1) Test compound is prepared in an appropriate vehicle (1% hydroxyethyl cellulose, in 25 mM phosphate buffer pH 2) and is administered by oral gavage daily (at 25, 50 or 100 mg/kg (mpk)) for 21 days when tumours are established (11-29 days after implant). Tumour response is determined by tumour volume measurement performed twice a week during the course of treatment.
(§2) The statistical method for assessing Tumour Growth Delay (TGD-Individual interpolation method) is as follows: For each animal, the time to reach a specified tumour volume (threshold) is calculated by interpolating between the last measurement before reaching the threshold and the next measurement. The interpolation is linear using log10(volume) vs. time. If an animal never reaches the threshold, its crossing time is reported at “>T” where T is the last day measured for that animal. These crossing times are analyzed as “time-to-event” data with right-censoring using a Weibull distribution. A mean and standard deviation are determined for each treatment group. Tumour growth delay (TGD) is the difference in mean crossing time between a treated group and the vehicle control group. T-tests are performed using the means and standard deviations from the Weibull analysis. Body weight is taken as a general measurement of toxicity.
Calu-6 (lung) subcutaneous xenografts are grown and measured as previously described. Gemcitabine was formulated in saline (0.9% sodium chloride in purified water) and administered via intraperitoneal injection q3dx7. Test compound was administered qdx21. A comparison of the single agent activity of gemcitabine with combination treatments containing both gemcitabine and the compound of Example 16 are shown in Table 10. Tumour growth is analyzed by 2-way interaction analysis.

[2] = test system: U87 MG orthotopic brain xenografts; test: U87 MG orthotopic brain xenograft, combination study with temozolomide; details: TMZ IP 3 mg/kg (days 6 and 13)
Protocol: In vivo brain tumour model: Male NIH-RNU rats weighing between 225 and 300 g are anesthetized with isoflurane and placed into a stereotaxic frame (David Kopf Instruments, Tujunga, Calif.). A mid-line incision is made and a 1 mm burr hole drilled 2 mm lateral from the midline and 3 mm anterior to the coronal suture. A cell suspension of 5×10^5 U87 MG human glioblastoma tumour cells (grown in Eagle's MEM with Earle Salts, L-glutamine and non essential amino acids, 1 mM Na pyruvate and 10% FBS) in 10 μL (5×10^5 cells for qd dosing and 1×10^6 for q2d dosing) is injected at a depth of 3 mm by means of a 25 or 50 μl Hamilton syringe over a period of approximately 2 min using a stereotaxic-mounted syringe pump (Nano-Injector, model #53310 and Stereotaxic Adapter Clamp, part #51681, Stoelting Co, Wood Dale, Ill.) with the syringe left in place for an additional 1 min to prevent backflow and the syringe is slowly withdrawn. […]
The primary outcome variable is survival. Animals are monitored daily until death and, in consultation with the veterinary staff and in adherence with the policy on tumour implantation, euthanized if the animal becomes moribund. […] Survival data are analyzed by the Kaplan-Meier method for median survival analysis using JMP ν6.0.2 (SAS Institute).

[3] = test system: U87 MG subcutaneous xenografts; test: U87 MG subcutaneous xenograft, combination study with temozolomide; format: in vivo, human; details: 3 mpk, IP, q7dx2
Protocol: as §1, §2
U87 MG subcutaneous xenografts are grown and measured as previously described. The compound of Example 16 is formulated and administered as previously described and dosed orally once a day from days 11-31. Temozolomide (Schering Corporation) is formulated in 1% w/v hydroxyethylcellulose/0.25% v/v polysorbate 80 in purified water and administered by interperitoneal injection on days 11 and 18. A comparison of the single agent activity of temozolomide with a combination treatment with the compound of Example 16 is shown in Table 7. Tumor growth is analyzed by 2-way interaction analysis; log-transformed tumor volumes were analyzed with a repeated measures analysis of variance (ANOVA) using a spatial power correlation model in SAS, version 9.1 (Cary, N.C.). […]

[4] = Solubility Assay; format: physicochemical; details: aqueous buffer, thermodynamic from solid; pH 8 phosphate buffer, ambient temperature, at least 16 hours, target 2.0 mg/mL
Protocol: The appropriate amounts of test compound are weighed into separate chromatographic vials. […] The vials are capped securely and placed in a rotation device. The vials are rotated through 360° for at least 16 hours at ambient temperature with an angular speed of about 50 rpm. A visual examination of the individual vials is performed after rotation. 250 μL from each vial is filtered through a 0.7 μm glass filter. The sample filtrate and standard filtrate are collected into separate wells of 96 deep well plates. […] The sample and standard solutions are analysed by HPLC (LC Column: […] A—0.2% Formic Acid in Water; B—0.2% Formic Acid in acetonitrile; […] Diode array detector scan from 200 nm to 400 nm. The wavelength extracted and used for quantitation is selected to provide the most accurate estimation of the sample preparations.) Retention time used for peak assignment for the test compound is obtained from the 200 μg/mL standard preparation chromatogram. Solubility values are calculated using a four-level calibration curve. The line of best fit for peak area of calibration standards calculated by chromatographic management data system using linear or quadratic through zero fit is used. Solubility results are reported in mg/mL. Preferred exemplified compounds display a solubility of at least 2 mg/ml in pH 8 phosphate buffer using the above assay.

[5] = test system: human lung cancer cells (NCI H460); test: Human subcutaneous xenograft model, NCI H460, athymic nude mice; format: in vivo; details: oral gavage daily for 21 days
Protocol: as §1, §2

[6] = test system: U87 MG human glioblastoma tumour cells; test: Orthotopic Brain Xenograft Model, NIH-RNU rats, survival; format: in vivo
Description: Test compound is formulated in vehicle (1% w/v hydroxyethylcellulose/0.25% v/v polysorbate 80/0.05% v/v antifoam in purified water) and administered every day for 21 days at 20, 40 and 80 mpk (qdx21) and 80 mpk q2dx10 starting on day 4 after tumour implant.
The primary outcome variable is survival.

[7] = test system: Human colorectal cancer cells (colo-205); test: Human subcutaneous xenograft model, colo-205, athymic nude mice; format: in vivo; details: oral gavage daily for 21 days
Protocol: as §1, §2

[8] = Plasma and brain exposure in non-tumour bearing male Sprague Dawley rats; format: in vivo, rat; details: male SD rats; for concentration at 2 h / concentration at 4 h / concentration at 24 h / concentration at 48 h: single oral dose 30 mg/kg
Protocol: Samples are taken over 48 h in order to determine plasma and brain concentrations. Animals are sacrificed, and whole blood collected by cardiac puncture and plasma isolated by centrifugation. Whole brain is collected and snapped frozen in liquid nitrogen. […] An internal standard compound in acetonitrile/methanol (1:1, v/v) is added to samples of plasma or brain homogenate to precipitate protein and the samples are centrifuged prior to analysis. The supernatants are analysed by injection and rapid gradient elution on a Javelin Betasil C18 column (20×2.1 mm cartridge, Mobile phase A: […] The eluted analytes are detected by LC-MS-MS analysis using a Sciex API 4000 triple quadrupole mass spectrometer. Concentrations of compounds in plasma or brain are determined from standards prepared under identical conditions. The plasma and brain concentrations are determined in this study from a group of three rats at each time point (see Tables 6a and 6b) and are used to calculate the area under the plasma concentration/time curve or the brain concentration/time curve from 0 to 48 hours. […] Maximal concentrations (Tmax) are detected at 4 h.

[9] = test system: human acute myeloid leukaemia (AML) cells (MV4-11); test: Human subcutaneous xenograft model, MV4-11, athymic nude mice; format: in vivo; details: for TGD Days (750 m3): oral gavage daily for 21 days
Protocol: as §1, §2

[10] = test system: human glioblastoma cells (U87MG); test: Human subcutaneous xenograft model, U87MG, athymic nude mice; format: in vivo; details: U87 MG, oral gavage daily for 21 days
Protocol: as §1, §2

[11] = target: T1, CDK6 (Homo sapiens, UniProt Q00534); test: CDK6 Inhibition Assay; format: biochemical; details: CDK6 kinase, 33P-ATP, CTRF substrate
T1 construct: purchased Proqinase 7533
Protocol: 10 μL of test compound in 20% DMSO, 20 μL of ATP and CTRF (Upstate cat # 12-439) solution, and 10 μL of enzyme solution are mixed in a 96 well plate. The ATP and CRTF solution is prepared to give a final concentration of 100 μM ATP, 0.5 μCi [^33P]-ATP and 0.8 μM CTRF diluted in kinase buffer of 68 mM HEPES pH 7.4, 6.72 mM MgCl2, 2.64 mM DTT, and 0.004% TRITON™ X-100. The enzyme solution is prepared for a final concentration of 1.7 ng/μL CDK6 enzyme (Proqinase cat # 7533) diluted in the kinase buffer described above in the CDK4 inhibition assay. Test compounds are serially diluted 1:3 in 20% DMSO to create a 10 point curve at a starting concentration of 20 μM. 20% DMSO buffer alone without added test compound is employed as a control, 500 mM EDTA is used to determine the level of background ^33P in the absence of enzyme activity. Reagents are mixed and incubated for 90 min at 20° C. The reaction is terminated by the addition of 80 μL 10% (v/v) H3PO4 and precipitation of material onto glass fiber filter plates (Millipore, MAFC N0B 50). The wells are washed four times with 0.5% H3PO4 and the radioactivity incorporated is determined with a microplate scintillation counter (Microbeta Trilux, Wallac).
The data is analyzed in the same manner as for CDK4. Preferred exemplified compounds display an IC50 of <30 nM in the above assay. […]

[12] = Sprague Dawley, rat, brain, read-out: Brain concentration (Mean)
[13] = Sprague Dawley, rat, plasma, read-out: Plasma concentration (Mean)

T1 sequence (Q00534 whole entry): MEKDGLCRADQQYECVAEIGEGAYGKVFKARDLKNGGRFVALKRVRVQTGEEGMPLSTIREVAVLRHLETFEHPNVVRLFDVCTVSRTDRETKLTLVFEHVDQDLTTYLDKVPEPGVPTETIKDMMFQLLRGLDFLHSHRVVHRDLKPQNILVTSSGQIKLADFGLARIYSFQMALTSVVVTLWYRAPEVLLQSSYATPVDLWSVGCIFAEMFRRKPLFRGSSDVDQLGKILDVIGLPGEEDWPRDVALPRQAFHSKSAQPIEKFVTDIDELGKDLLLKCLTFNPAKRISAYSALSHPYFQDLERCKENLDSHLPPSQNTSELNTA
T1 sequence (P24385 whole entry partner): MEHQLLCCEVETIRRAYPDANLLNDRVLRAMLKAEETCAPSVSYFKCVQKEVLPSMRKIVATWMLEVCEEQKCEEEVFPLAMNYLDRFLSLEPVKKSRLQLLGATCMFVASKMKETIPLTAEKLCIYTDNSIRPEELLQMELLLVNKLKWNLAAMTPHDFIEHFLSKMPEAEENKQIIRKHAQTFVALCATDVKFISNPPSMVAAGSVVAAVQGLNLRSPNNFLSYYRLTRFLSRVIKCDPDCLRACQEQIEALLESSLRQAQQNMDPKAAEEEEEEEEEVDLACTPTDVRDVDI

For `Cl.Nc1ccn([C@@H]2O[C@H](CO)[C@@H](O)C2(F)F)c(=O)n1` (single isomer, unassigned) [Gemcitabine, 2′-deoxy-2′,2′-difluorocytidine monohydrochloride (β-isomer)], the Dead/total animals [1] was 0/7, the “Maximum body weight loss (%)” value [1] was −12% and the “Tumor volume (mg) at end of dosing period (day 38)” value [1] was 509.18 mg.

In the case of `Cn1nnc2c(C(N)=O)ncn2c1=O` [Temozolomide], the “Mean Survival” value [2] is reported as 46.9 days, the “Median Survival” value [2] is reported as 47 days and the Dead/total animals [3] is reported as 0/8. For the same compound, the “Maximum body weight loss (%)” value [3] was −1% and the “Tumor volume (mg) at end of dosing period (day 31)” value [3] was 101.88 mg.

In the case of `CCN1CCN(Cc2ccc(Nc3ncc(F)c(-c4cc(F)c5nc(C)n(C(C)C)c5c4)n3)nc2)CC1.CS(=O)(=O)O` [Example 16, [5-(4-Ethyl-piperazin-1-ylmethyl)-pyridin-2-yl]-[5-fluoro-4-(7-fluoro-3-isopropyl-2-methyl-3H-benzoimidazol-5-yl)-pyrimidin-2-yl]-amine methanesulfonate], the solubility [4] is reported as 2100 µg/mL, the “TGD Days (750 m3)” value ([5]; H460, 25 mpk) is reported as 1.5 days and the “TGD Days (750 m3)” value ([5]; H460, 50 mpk) is reported as 4.0 days. For the same compound, the “TGD Days (750 m3)” value ([5]; H460, 100 mpk) was 6.7 days, the “median survival compared to vehicle treated animals” value ([6]; 40 mpk qd, 80 mpk qd and 80 mpk q2d) was “statistically significant increase in median survival” and the “Mean Survival” value ([6]; PO 20 mg/kg qd) was 29.8 days. For the same compound, the “Median Survival” value ([6]; PO 20 mg/kg qd) was 31 days, the “Mean Survival” value ([6]; PO 40 mg/kg qd) was 34.3 days and the “Median Survival” value ([6]; PO 40 mg/kg qd) was 37 days. For the same compound, the “Mean Survival” value ([6]; PO 80 mg/kg q2d) was 33.0 days, the “Median Survival” value ([6]; PO 80 mg/kg q2d) was 34 days and the “Mean Survival” value ([6]; PO 80 mg/kg qd) was 36.9 days. The “Median Survival” value ([6]; PO 80 mg/kg qd) was 37 days, the “TGD Days (750 m3)” value ([7]; colo-205, 25 mpk) was 15.3 days and the “TGD Days (750 m3)” value ([7]; colo-205, 50 mpk) was 17.4 days. The “TGD Days (750 m3)” value ([7]; colo-205, 100 mpk) was 39.9 days, the concentration at 2 h [8, 12] was 758 ng/g and the concentration at 4 h [8, 12] was 1500 ng/g. For the same compound, the concentration at 24 h [8, 12] was 992 ng/g, the concentration at 48 h [8, 12] was 718 ng/g and the Cmax ([8]; Sprague Dawley, rat, plasma, 30 mg/kg oral) was 1500 ng/mL. For the same compound, the concentration at 2 h [8, 13] was 1010 ng/mL, the concentration at 4 h [8, 13] was 1500 ng/mL and the concentration at 24 h [8, 13] was 1020 ng/mL. For the same compound, the concentration at 48 h [8, 13] was 972 ng/mL, the Tmax ([8]; Sprague Dawley, rat, 30 mg/kg oral, plasma and brain, read-out: Maximal concentrations (Tmax)) was 4 h and the “Cmax Brain” value ([8]; 30 mg/kg oral) was 1500 ng/g. For the same compound, the “Tmax Brain” value ([8]; 30 mg/kg oral) was 4.00 h, the “Tmax Plasma” value ([8]; 30 mg/kg oral) was 4.00 h and the blood-brain barrier penetration ([8]; 30 mg/kg oral) was “able to cross the blood-brain barrier and distributes well into the brain”. For the same compound, the “AUC Brain” value ([8]; 30 mg/kg oral, 0-48 Hours) was 47900 ng·h/g, the “AUC Plasma” value ([8]; 30 mg/kg oral, 0-48 Hours) was 52300 ng·h/mL and the Kp ([8]; male, Sprague Dawley, rat, brain/plasma, po, 30 mg/kg, 30 mg/kg oral, 0-48 Hours, read-out: AUC Brain/Plasma Ratio) was 0.92. The Kp ([8]; male, Sprague Dawley, rat, brain/plasma, po, 30 mg/kg, 30 mg/kg oral, by AUC or Cmax, read-out: brain/plasma ratio) was ~1, the Kp at 4 h ([8]; male, Sprague Dawley, rat, brain/plasma, po, 30 mg/kg, 30 mg/kg oral, read-out: Cmax Brain/Plasma Ratio) was 1 and the tumour response ([9]; AML MV4-11 xenografts, 100 mg per Kg (mpk)) was “tumour regression is observed”. The “TGD Days (750 m3)” value ([9]; MV4-11, 25 mpk) was 10.4 days, the “TGD Days (750 m3)” value ([9]; MV4-11, 50 mpk) was 11.5 days and the “Tumor volume (mg) at start of dosing period (day 28)” value ([9]; MV4-11, 100 mpk, PO, qdx21, day 28) was 225.94 mg. For the same compound, the “Tumor volume (mg) at end of dosing period (day 49)” value ([9]; MV4-11, 100 mpk, PO, qdx21, day 49) was 116.68 mg, the “TGD Days (750 m3)” value ([9]; MV4-11, 100 mpk) was 28.8 days and the “TGD Days (750 m3)” value ([10]; 25 mpk) was 6.1 days. For the same compound, the “TGD Days (750 m3)” value ([10]; 50 mpk) was 10.0 days and the “TGD Days (750 m3)” value ([10]; 100 mpk) was 21.4 days.

For `Cc1nc2c(F)cc(-c3nc(Nc4ccc(CN5CCN(C(C)C)CC5)cn4)ncc3F)cc2n1C(C)C` [Example 19, [5-Fluoro-4-(7-fluoro-3-isopropyl-2-methyl-3H-benzoimidazol-5-yl)-pyrimidin-2-yl]-[5-(4-isopropyl-piperazin-1-ylmethyl)-pyridin-2-yl]-amine methanesulfonate], the IC50 [11] was 5 nM.
